In US20250320193A1, “OXOISOINDOLINYL SUBSTITUTED PIPERIDINEDIONE DERIVATIVE AND USE THEREOF” (GLUETACS THERAPEUTICS (SHANGHAI) CO., LTD., priority 2022, published 2025):

What was measured:
IKZF1 = IKZF1 (Homo sapiens (Human), UniProt Q13422+Q96SW2); experiment: Western blot, substrate protein expression in hPBMC: IKZF1; assay type: cell-based; conditions: hPBMC, compound 500 nM, 24 hours, Western blot
Method in brief: (§1)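 hPBMC, 1×10^6 cells/mL, 24 h compound exposure; RIPA lysis, BCA protein assay, SDS-PAGE, NC membrane immunoblot. Densitometry vs internal control → % protein remaining; degradation % = 100% − remaining; DC50 = conc. at 50% of DMSO band signal.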

IKZF3 = IKZF3 (Homo sapiens (Human), UniProt Q96SW2+Q9UKT9); experiment: Western blot, substrate protein expression in hPBMC: IKZF3; assay type: cell-based; conditions: hPBMC, compound 500 nM, 24 hours, Western blot
Chain of IKZF3 (Q9UKT9 whole entry): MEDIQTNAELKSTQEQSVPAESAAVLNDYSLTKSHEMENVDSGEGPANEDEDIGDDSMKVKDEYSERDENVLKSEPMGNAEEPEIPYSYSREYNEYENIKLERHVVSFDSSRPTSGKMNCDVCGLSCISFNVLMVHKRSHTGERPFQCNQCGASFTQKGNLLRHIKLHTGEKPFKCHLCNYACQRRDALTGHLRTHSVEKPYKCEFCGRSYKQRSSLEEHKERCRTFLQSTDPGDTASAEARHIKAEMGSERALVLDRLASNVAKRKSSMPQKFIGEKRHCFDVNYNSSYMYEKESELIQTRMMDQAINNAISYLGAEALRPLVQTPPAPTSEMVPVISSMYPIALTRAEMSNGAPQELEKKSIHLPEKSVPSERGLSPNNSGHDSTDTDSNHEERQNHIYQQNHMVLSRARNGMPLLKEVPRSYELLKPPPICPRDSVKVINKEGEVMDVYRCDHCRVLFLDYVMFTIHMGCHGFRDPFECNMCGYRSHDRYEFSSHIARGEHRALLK
Chain of IKZF3 (Q96SW2 whole entry): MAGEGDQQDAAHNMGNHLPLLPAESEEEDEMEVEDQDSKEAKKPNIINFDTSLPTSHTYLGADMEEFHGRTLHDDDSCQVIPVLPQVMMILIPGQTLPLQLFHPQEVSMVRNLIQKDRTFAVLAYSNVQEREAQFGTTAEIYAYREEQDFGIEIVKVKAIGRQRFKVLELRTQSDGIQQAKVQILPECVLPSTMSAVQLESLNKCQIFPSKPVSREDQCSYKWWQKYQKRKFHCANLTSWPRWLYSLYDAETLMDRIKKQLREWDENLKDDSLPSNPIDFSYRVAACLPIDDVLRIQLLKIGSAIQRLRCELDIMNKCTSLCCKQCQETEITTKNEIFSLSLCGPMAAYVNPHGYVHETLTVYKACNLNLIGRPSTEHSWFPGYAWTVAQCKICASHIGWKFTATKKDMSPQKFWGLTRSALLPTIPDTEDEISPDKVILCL
Chain of IKZF3 (Q16531 whole entry partner): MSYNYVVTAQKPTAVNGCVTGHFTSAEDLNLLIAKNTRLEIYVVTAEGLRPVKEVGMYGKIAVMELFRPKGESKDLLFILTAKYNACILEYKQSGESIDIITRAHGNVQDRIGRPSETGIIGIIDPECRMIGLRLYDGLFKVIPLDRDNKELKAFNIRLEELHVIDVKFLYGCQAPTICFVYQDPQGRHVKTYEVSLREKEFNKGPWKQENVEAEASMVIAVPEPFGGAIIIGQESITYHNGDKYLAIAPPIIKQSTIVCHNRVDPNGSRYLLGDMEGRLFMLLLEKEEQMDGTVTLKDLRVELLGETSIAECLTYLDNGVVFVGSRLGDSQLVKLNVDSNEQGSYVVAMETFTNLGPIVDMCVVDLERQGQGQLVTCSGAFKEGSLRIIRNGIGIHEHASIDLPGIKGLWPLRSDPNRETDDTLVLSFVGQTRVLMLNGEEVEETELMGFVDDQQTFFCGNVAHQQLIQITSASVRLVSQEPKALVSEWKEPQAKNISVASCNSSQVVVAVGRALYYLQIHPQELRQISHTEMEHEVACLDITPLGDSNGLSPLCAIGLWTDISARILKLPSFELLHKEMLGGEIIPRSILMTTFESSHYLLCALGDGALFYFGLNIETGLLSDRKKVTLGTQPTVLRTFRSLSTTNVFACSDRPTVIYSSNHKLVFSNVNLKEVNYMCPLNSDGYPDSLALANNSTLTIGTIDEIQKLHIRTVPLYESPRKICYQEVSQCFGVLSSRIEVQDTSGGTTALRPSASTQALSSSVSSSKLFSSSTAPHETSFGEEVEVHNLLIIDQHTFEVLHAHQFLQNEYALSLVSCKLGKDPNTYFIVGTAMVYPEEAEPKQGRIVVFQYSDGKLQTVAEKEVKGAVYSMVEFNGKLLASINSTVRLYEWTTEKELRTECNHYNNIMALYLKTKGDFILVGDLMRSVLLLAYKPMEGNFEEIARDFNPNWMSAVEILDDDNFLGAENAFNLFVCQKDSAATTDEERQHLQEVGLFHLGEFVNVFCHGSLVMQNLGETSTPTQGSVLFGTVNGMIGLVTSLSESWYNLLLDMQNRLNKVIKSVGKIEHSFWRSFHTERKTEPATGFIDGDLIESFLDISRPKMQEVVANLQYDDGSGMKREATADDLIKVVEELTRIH
Method in brief: as §1

[1] = target: human Cereblon WT GST-tagged protein (Homo sapiens (Human), UniProt Q96SW2); experiment: CRBN-binding affinity, HTRF (CEREBLON BINDING kit, CISBIO); conditions: HTRF inhibitory activity
Chain of human Cereblon WT GST-tagged protein (Q96SW2 whole entry): as the sequence (Q96SW2 whole entry) above
Method in brief: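 Compounds were mixed with GST-tagged human Cereblon WT protein, then with Thalidomide-Red tracer and GST Eu antibody, and binding was read by HTRF. Inhibition rate was calculated from 620 nm emission relative to blank control wells (no protein) and solvent control wells.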

GSPT1 = GSPT1 (Homo sapiens (Human), UniProt P15170+Q96SW2); experiment: Western blot, substrate protein expression in hPBMC: GSPT1; assay type: cell-based; conditions: hPBMC, compound 500 nM, 24 hours, Western blot
Chain of GSPT1 (P15170 whole entry): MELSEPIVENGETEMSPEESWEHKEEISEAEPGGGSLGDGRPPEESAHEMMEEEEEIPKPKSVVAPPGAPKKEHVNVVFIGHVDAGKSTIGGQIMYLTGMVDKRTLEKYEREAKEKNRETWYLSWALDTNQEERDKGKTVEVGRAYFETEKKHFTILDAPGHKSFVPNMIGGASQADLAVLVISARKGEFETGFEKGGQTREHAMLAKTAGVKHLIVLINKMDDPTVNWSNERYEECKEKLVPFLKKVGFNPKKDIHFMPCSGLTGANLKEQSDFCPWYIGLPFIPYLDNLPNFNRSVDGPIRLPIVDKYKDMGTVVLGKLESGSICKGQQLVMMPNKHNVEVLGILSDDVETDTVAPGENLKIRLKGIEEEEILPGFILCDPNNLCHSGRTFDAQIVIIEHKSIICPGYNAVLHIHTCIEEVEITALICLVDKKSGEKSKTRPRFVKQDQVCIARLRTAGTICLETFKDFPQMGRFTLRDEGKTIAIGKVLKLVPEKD
Chain of GSPT1 (Q96SW2 whole entry): as the sequence (Q96SW2 whole entry) above
Chain of GSPT1 (Q16531 whole entry partner): as the sequence (Q16531 whole entry partner) above
Method in brief: as §1

Chain of IKZF1 (Q13422 whole entry): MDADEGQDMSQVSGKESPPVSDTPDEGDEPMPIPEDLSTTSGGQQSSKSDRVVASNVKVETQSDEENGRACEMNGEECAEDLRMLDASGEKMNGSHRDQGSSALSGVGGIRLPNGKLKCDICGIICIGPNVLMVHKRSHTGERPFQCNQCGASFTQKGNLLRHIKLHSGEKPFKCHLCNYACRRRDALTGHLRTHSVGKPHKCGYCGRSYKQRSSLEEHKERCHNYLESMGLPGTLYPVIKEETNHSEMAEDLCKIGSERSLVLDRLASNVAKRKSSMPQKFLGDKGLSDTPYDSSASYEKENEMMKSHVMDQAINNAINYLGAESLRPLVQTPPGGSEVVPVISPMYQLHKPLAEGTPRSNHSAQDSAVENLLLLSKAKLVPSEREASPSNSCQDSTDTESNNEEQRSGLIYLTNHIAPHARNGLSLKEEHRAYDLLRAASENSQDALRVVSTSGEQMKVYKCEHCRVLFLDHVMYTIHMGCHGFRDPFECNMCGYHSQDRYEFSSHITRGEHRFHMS
Chain of IKZF1 (Q96SW2 whole entry): as the sequence (Q96SW2 whole entry) above
Chain of IKZF1 (Q16531 whole entry partner): as the sequence (Q16531 whole entry partner) above

SMILES | IC50 [1] | substrate protein remaining % IKZF1 (IKZF1) | substrate protein remaining % IKZF3 (IKZF3) | substrate protein remaining % GSPT1 (GSPT1)
O=C1CCC(N2Cc3cc(C(=O)N4CCC(N(c5ccccc5)c5ccccn5)CC4)cc(F)c3C2=O)C(=O)N1 (stereo not drawn) [GT-05924, 3-(7-fluoro-1-oxo-5-(4-(phenyl(pyridin-2-yl)amino)piperidine-1-carbonyl)isoindolin-2-yl)piperidine-2,6-dione] | 500 to 1000 nM | B (B represents substrate protein remaining % > 50%) | B (B represents substrate protein remaining % > 50%) | A (A represents 0% ≤ substrate protein remaining % ≤ 50%)
O=C1CCC(N2Cc3cc(C(=O)N4CCC(N(c5ccccc5)c5ccccc5)CC4)ccc3C2=O)C(=O)N1 (stereo not drawn) [GT-05926, 3-(5-(4-(diphenylamino)piperidine-1-carbonyl)-1-oxoisoindolin-2-yl)piperidine-2,6-dione] | < 500 nM | B (B represents substrate protein remaining % > 50%) | B (B represents substrate protein remaining % > 50%) | A (A represents 0% ≤ substrate protein remaining % ≤ 50%)
O=C1CCC(N2Cc3c(C(=O)N4CCN(C(c5ccccc5)c5ccccn5)CC4)cccc3C2=O)C(=O)N1 (stereo not drawn) [GT-05929, 3-(1-oxo-4-(4-(phenyl(pyridin-2-yl)methyl)piperazine-1-carbonyl)isoindolin-2-yl)piperidine-2,6-dione] | 500 to 1000 nM | A (A represents 0% ≤ substrate protein remaining % ≤ 50%) | A (A represents 0% ≤ substrate protein remaining % ≤ 50%) | A (A represents 0% ≤ substrate protein remaining % ≤ 50%)
O=C1CCC(N2Cc3c(C(=O)N4CCN(C(c5ccc(F)cc5)c5ccc(F)cc5)CC4)cccc3C2=O)C(=O)N1 (stereo not drawn) [GT-05930, 3-(4-(4-(bis(4-fluorophenyl)methyl)piperazine-1-carbonyl)-1-oxoisoindolin-2-yl)piperidine-2,6-dione] | < 500 nM | B (B represents substrate protein remaining % > 50%) | B (B represents substrate protein remaining % > 50%) | A (A represents 0% ≤ substrate protein remaining % ≤ 50%)
O=C1CCC(N2Cc3cc(CN4CC5CCC4CN5C(c4ccccc4)c4ccccc4)c(F)cc3C2=O)C(=O)N1 (stereo not drawn) [GT-05963, 3-(5-((5-benzhydryl-2,5-diazabicyclo[2.2.2]octan-2-yl)methyl)-6-fluoro-1-oxoisoindolin-2-yl)piperidine-2,6-dione] | 500 to 1000 nM | B (B represents substrate protein remaining % > 50%) | B (B represents substrate protein remaining % > 50%) | A (A represents 0% ≤ substrate protein remaining % ≤ 50%)
CC1CN(Cc2cc(F)c3c(c2)CN(C2CCC(=O)NC2=O)C3=O)CC(C)N1C(c1ccccc1)c1ccccc1 (stereo not drawn) [GT-05967, 3-(5-((4-benzhydryl-3,5-dimethylpiperazin-1-yl)methyl)-7-fluoro-1-oxoisoindolin-2-yl)piperidine-2,6-dione] | 1000 to 1900 nM | B (B represents substrate protein remaining % > 50%) | A (A represents 0% ≤ substrate protein remaining % ≤ 50%) | A (A represents 0% ≤ substrate protein remaining % ≤ 50%)

Further lines, with some results ahead:

IC50 [1] | SMILES | substrate protein remaining % IKZF1 (IKZF1) | substrate protein remaining % IKZF3 (IKZF3) | substrate protein remaining % GSPT1 (GSPT1)
< 500 nM | O=C1CCC(N2Cc3cc(C(=O)N4CCC(N(c5ccccc5)c5ccccc5)CC4)cc(F)c3C2=O)C(=O)N1 (stereo not drawn) [GT-05927, 3-(5-(4-(diphenylamino)piperidine-1-carbonyl)-7-fluoro-1-oxoisoindolin-2-yl)piperidine-2,6-dione] | B (B represents substrate protein remaining % > 50%) | B (B represents substrate protein remaining % > 50%) | A (A represents 0% ≤ substrate protein remaining % ≤ 50%)
1000 to 1900 nM | CC1(C)CN(Cc2cc3c(cc2F)C(=O)N(C2CCC(=O)NC2=O)C3)CCN1C(c1ccccc1)c1ccccc1 (stereo not drawn) [GT-05960, 3-(5-((4-benzhydryl-3,3-dimethylpiperazin-1-yl)methyl)-6-fluoro-1-oxoisoindolin-2-yl)piperidine-2,6-dione] | B (B represents substrate protein remaining % > 50%) | A (A represents 0% ≤ substrate protein remaining % ≤ 50%) | A (A represents 0% ≤ substrate protein remaining % ≤ 50%)
500 to 1000 nM | CC1(C)CN(Cc2cc(F)c3c(c2)CN(C2CCC(=O)NC2=O)C3=O)CCN1C(c1ccccc1)c1ccccc1 (stereo not drawn) [GT-05961, 3-(5-((4-benzhydryl-3,3-dimethylpiperazin-1-yl)methyl)-7-fluoro-1-oxoisoindolin-2-yl)piperidine-2,6-dione] | B (B represents substrate protein remaining % > 50%) | A (A represents 0% ≤ substrate protein remaining % ≤ 50%) | A (A represents 0% ≤ substrate protein remaining % ≤ 50%)
1000 to 1900 nM | CC1CN(Cc2ccc3c(c2F)CN(C2CCC(=O)NC2=O)C3=O)CC(C)N1C(c1ccccc1)c1ccccc1 (stereo not drawn) [GT-05965, 3-(5-((4-benzhydryl-3,5-dimethylpiperazin-1-yl)methyl)-4-fluoro-1-oxoisoindolin-2-yl)piperidine-2,6-dione] | A (A represents 0% ≤ substrate protein remaining % ≤ 50%) | A (A represents 0% ≤ substrate protein remaining % ≤ 50%) | A (A represents 0% ≤ substrate protein remaining % ≤ 50%)
1000 to 1900 nM | CC1CN(Cc2cc3c(cc2F)C(=O)N(C2CCC(=O)NC2=O)C3)CC(C)N1C(c1ccccc1)c1ccccc1 (stereo not drawn) [GT-05966, 3-(5-((4-benzhydryl-3,5-dimethylpiperazin-1-yl)methyl)-6-fluoro-1-oxoisoindolin-2-yl)piperidine-2,6-dione] | B (B represents substrate protein remaining % > 50%) | B (B represents substrate protein remaining % > 50%) | A (A represents 0% ≤ substrate protein remaining % ≤ 50%)
1000 to 1900 nM | O=C1CCC(N2Cc3c(ccc(CN4CCC5(CCN(C(c6ccccc6)c6ccccc6)CC5)C4)c3F)C2=O)C(=O)N1 (stereo not drawn) [GT-05970, 3-(5-((8-benzhydryl-2,8-diazaspiro[4.5]decan-2-yl)methyl)-4-fluoro-1-oxoisoindolin-2-yl)piperidine-2,6-dione] | B (B represents substrate protein remaining % > 50%) | B (B represents substrate protein remaining % > 50%) | A (A represents 0% ≤ substrate protein remaining % ≤ 50%)
